In US10206394B2, “Herbicidal compounds” (Syngenta Participations AG, priority 2014, dated 2019):
Like-named read-outs stand apart in the source and are kept apart here.

Tests used:
Experiment in all cases: Glasshouse assay for herbicidal activity (pre- and post-emergence), percentage phytotoxicity
Format in all cases: in vivo
[1] = tested on: Alopecurus myosuroides (ALOMY); details: Alopecurus myosuroides
Summary of the method: (§1)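 Pot-grown plants treated one day after sowing (pre-emergence) or at about 12 days (post-emergence); glasshouse at 24/18° C (warm) or 20/16° C (cool species) day/night, 16 h light, 65% humidity. Visual % phytotoxicity (0 = none, 100 = total damage) scored at 15 DAA post or 20 DAA pre.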

[2] = tested on: Avena fatua (AVEFA); details: Avena fatua
Summary of the method: as §1

[3] = tested on: Echinochloa crus-galli (ECHCG); details: Echinochloa crus-galli
Summary of the method: as §1

[4] = tested on: Lolium perenne (LOLPE); details: Lolium perenne
Summary of the method: as §1

[5] = post-emergence, 360 h, Rate 250 g/ha, post-emergence, assessed visually 15 DAA, 100%=total damage, 0%=no damage, read-out: Post-emergence herbicidal activity (percentage phytotoxicity) ALOMY POST
[6] = post-emergence, 360 h, Rate 250 g/ha, post-emergence, assessed visually 15 DAA, 100%=total damage, 0%=no damage, read-out: Post-emergence herbicidal activity (percentage phytotoxicity) AVEFA POST
[7] = post-emergence, 360 h, Rate 250 g/ha, post-emergence, assessed visually 15 DAA, 100%=total damage, 0%=no damage, read-out: Post-emergence herbicidal activity (percentage phytotoxicity) ECHCG POST
[8] = post-emergence, 360 h, Rate 250 g/ha, post-emergence, assessed visually 15 DAA, 100%=total damage, 0%=no damage, read-out: Post-emergence herbicidal activity (percentage phytotoxicity) LOLPE POST
[9] = pre-emergence, 480 h, Rate 250 g/ha, pre-emergence, assessed visually 20 DAA, 100%=total damage, 0%=no damage, read-out: Pre-emergence herbicidal activity (percentage phytotoxicity) ALOMY PRE
[10] = pre-emergence, 480 h, Rate 250 g/ha, pre-emergence, assessed visually 20 DAA, 100%=total damage, 0%=no damage, read-out: Pre-emergence herbicidal activity (percentage phytotoxicity) AVEFA PRE
[11] = pre-emergence, 480 h, Rate 250 g/ha, pre-emergence, assessed visually 20 DAA, 100%=total damage, 0%=no damage, read-out: Pre-emergence herbicidal activity (percentage phytotoxicity) ECHCG PRE
[12] = pre-emergence, 480 h, Rate 250 g/ha, pre-emergence, assessed visually 20 DAA, 100%=total damage, 0%=no damage, read-out: Pre-emergence herbicidal activity (percentage phytotoxicity) LOLPE PRE
[13] = post-emergence, 360 h, 250 g/ha, post-emergence, 15 DAA, visual assessment (100%=total damage, 0%=no damage), read-out: Post-emergence herbicidal activity (percentage phytotoxicity) ALOMY POST
[14] = pre-emergence, 480 h, 250 g/ha, pre-emergence, 20 DAA, visual assessment (100%=total damage, 0%=no damage), read-out: Pre-emergence herbicidal activity (percentage phytotoxicity) ALOMY PRE
[15] = post-emergence, 360 h, 250 g/ha, post-emergence, 15 DAA, visual assessment (100%=total damage, 0%=no damage), read-out: Post-emergence herbicidal activity (percentage phytotoxicity) AVEFA POST
[16] = pre-emergence, 480 h, 250 g/ha, pre-emergence, 20 DAA, visual assessment (100%=total damage, 0%=no damage), read-out: Pre-emergence herbicidal activity (percentage phytotoxicity) AVEFA PRE
[17] = post-emergence, 360 h, 250 g/ha, post-emergence, 15 DAA, visual assessment (100%=total damage, 0%=no damage), read-out: Post-emergence herbicidal activity (percentage phytotoxicity) ECHCG POST
[18] = pre-emergence, 480 h, 250 g/ha, pre-emergence, 20 DAA, visual assessment (100%=total damage, 0%=no damage), read-out: Pre-emergence herbicidal activity (percentage phytotoxicity) ECHCG PRE
[19] = post-emergence, 360 h, 250 g/ha, post-emergence, 15 DAA, visual assessment (100%=total damage, 0%=no damage), read-out: Post-emergence herbicidal activity (percentage phytotoxicity) LOLPE POST
[20] = pre-emergence, 480 h, 250 g/ha, pre-emergence, 20 DAA, visual assessment (100%=total damage, 0%=no damage), read-out: Pre-emergence herbicidal activity (percentage phytotoxicity) LOLPE PRE
[21] = post-emergence, 360 h, POST-emergence, rate 250 g/ha, visual score 15 DAA (100%=total damage, 0%=no damage), read-out: Post-emergence herbicidal activity (percentage phytotoxicity) ALOMY POST
[22] = pre-emergence, 480 h, PRE-emergence, rate 250 g/ha, visual score 20 DAA (100%=total damage, 0%=no damage), read-out: Pre-emergence herbicidal activity (percentage phytotoxicity) ALOMY PRE
[23] = post-emergence, 360 h, POST-emergence, rate 250 g/ha, visual score 15 DAA (100%=total damage, 0%=no damage), read-out: Post-emergence herbicidal activity (percentage phytotoxicity) AVEFA POST
[24] = pre-emergence, 480 h, PRE-emergence, rate 250 g/ha, visual score 20 DAA (100%=total damage, 0%=no damage), read-out: Pre-emergence herbicidal activity (percentage phytotoxicity) AVEFA PRE
[25] = post-emergence, 360 h, POST-emergence, rate 250 g/ha, visual score 15 DAA (100%=total damage, 0%=no damage), read-out: Post-emergence herbicidal activity (percentage phytotoxicity) ECHCG POST
[26] = pre-emergence, 480 h, PRE-emergence, rate 250 g/ha, visual score 20 DAA (100%=total damage, 0%=no damage), read-out: Pre-emergence herbicidal activity (percentage phytotoxicity) ECHCG PRE
[27] = post-emergence, 360 h, POST-emergence, rate 250 g/ha, visual score 15 DAA (100%=total damage, 0%=no damage), read-out: Post-emergence herbicidal activity (percentage phytotoxicity) LOLPE POST
[28] = pre-emergence, 480 h, PRE-emergence, rate 250 g/ha, visual score 20 DAA (100%=total damage, 0%=no damage), read-out: Pre-emergence herbicidal activity (percentage phytotoxicity) LOLPE PRE

Row | SMILES | pest or weed control at 250 g/ha [1, 5] | pest or weed control at 250 g/ha [2, 6] | pest or weed control at 250 g/ha [3, 7] | pest or weed control at 250 g/ha [4, 8] | pest or weed control at 250 g/ha [1, 21] | pest or weed control at 250 g/ha [1, 22] | pest or weed control at 250 g/ha [2, 23] | pest or weed control at 250 g/ha [2, 24] | pest or weed control at 250 g/ha [3, 25] | pest or weed control at 250 g/ha [3, 26] | pest or weed control at 250 g/ha [4, 27] | pest or weed control at 250 g/ha [4, 28] | other results
1 | Cc1cc(-c2ncc(Cl)cc2F)cc(C)c1C1C(=O)CC(CC(=O)NCc2cncs2)C1=O (centres unmarked) [Compound A129] | 50% | 70% | 90% | 20% | – | – | – | – | – | – | – | – | –
2 | Cc1cc(-c2ccc(Cl)cn2)cc(C)c1C1C(=O)CC(CC(=O)NCc2cccc(Br)c2)C1=O (centres unmarked) [Compound B359] | – | – | – | – | – | – | – | – | – | – | – | – | pest or weed control at 250 g/ha ([1]; post-emergence, 360 h, Rate 250 g/ha, post-emergence, visual assessment 15 DAA, 100%=total damage, 0%=no damage, read-out: Post-emergence herbicidal activity (percentage phytotoxicity) ALOMY POST): 90%; pest or weed control at 250 g/ha ([1]; pre-emergence, 480 h, Rate 250 g/ha, pre-emergence, visual assessment 20 DAA, 100%=total damage, 0%=no damage, read-out: Pre-emergence herbicidal activity (percentage phytotoxicity) ALOMY PRE): 90%; pest or weed control at 250 g/ha ([2]; post-emergence, 360 h, Rate 250 g/ha, post-emergence, visual assessment 15 DAA, 100%=total damage, 0%=no damage, read-out: Post-emergence herbicidal activity (percentage phytotoxicity) AVEFA POST): 100%; pest or weed control at 250 g/ha ([2]; pre-emergence, 480 h, Rate 250 g/ha, pre-emergence, visual assessment 20 DAA, 100%=total damage, 0%=no damage, read-out: Pre-emergence herbicidal activity (percentage phytotoxicity) AVEFA PRE): 70%; pest or weed control at 250 g/ha ([3]; post-emergence, 360 h, Rate 250 g/ha, post-emergence, visual assessment 15 DAA, 100%=total damage, 0%=no damage, read-out: Post-emergence herbicidal activity (percentage phytotoxicity) ECHCG POST): 100%; pest or weed control at 250 g/ha ([3]; pre-emergence, 480 h, Rate 250 g/ha, pre-emergence, visual assessment 20 DAA, 100%=total damage, 0%=no damage, read-out: Pre-emergence herbicidal activity (percentage phytotoxicity) ECHCG PRE): 80%; pest or weed control at 250 g/ha ([4]; post-emergence, 360 h, Rate 250 g/ha, post-emergence, visual assessment 15 DAA, 100%=total damage, 0%=no damage, read-out: Post-emergence herbicidal activity (percentage phytotoxicity) LOLPE POST): 90%; pest or weed control at 250 g/ha ([4]; pre-emergence, 480 h, Rate 250 g/ha, pre-emergence, visual assessment 20 DAA, 100%=total damage, 0%=no damage, read-out: Pre-emergence herbicidal activity (percentage phytotoxicity) LOLPE PRE): 90%
3 | Cc1cc(-c2ccc(F)cc2)cc(C)c1C1C(=O)CC(CC(=O)NC(C)(C)C)C1=O (centres unmarked) [Compound A36] | 90% | 100% | 100% | 90% | – | – | – | – | – | – | – | – | pest or weed control at 250 g/ha [1, 9]: 100%; pest or weed control at 250 g/ha [2, 10]: 100%; pest or weed control at 250 g/ha [3, 11]: 100%; pest or weed control at 250 g/ha [4, 12]: 100%
4 | Cc1cc(C)c(C2CC(=O)C(CC(=O)NC(C)CC(C)C)C2=O)c(C)c1 (centres unmarked) [Compound B25] | – | – | – | – | – | – | – | – | – | – | – | – | pest or weed control at 250 g/ha [1, 13]: 80%; pest or weed control at 250 g/ha [1, 14]: 90%; pest or weed control at 250 g/ha [2, 15]: 80%; pest or weed control at 250 g/ha [2, 16]: 70%; pest or weed control at 250 g/ha [3, 17]: 90%; pest or weed control at 250 g/ha [3, 18]: 90%; pest or weed control at 250 g/ha [4, 19]: 80%; pest or weed control at 250 g/ha [4, 20]: 90%
5 | Cc1cc(-c2ncc(Cl)cc2F)cc(C)c1C1C(=O)CC(CC(=O)NCC2CC2)C1=O (centres unmarked) [Compound B123] | – | – | – | – | – | – | – | – | – | – | – | – | pest or weed control at 250 g/ha [1, 13]: 100%; pest or weed control at 250 g/ha [1, 14]: 100%; pest or weed control at 250 g/ha [2, 15]: 100%; pest or weed control at 250 g/ha [2, 16]: 90%; pest or weed control at 250 g/ha [3, 17]: 100%; pest or weed control at 250 g/ha [3, 18]: 100%; pest or weed control at 250 g/ha [4, 19]: 100%; pest or weed control at 250 g/ha [4, 20]: 100%
6 | Cc1cc(-c2ncc(F)cc2F)cc(C)c1C1C(=O)CC(CC(=O)NCc2ccccc2)C1=O (centres unmarked) [Compound B181] | – | – | – | – | 100% | 70% | 100% | 70% | 100% | 100% | 100% | 100% | –
7 | Cc1cc(-c2ncc(Cl)cc2F)cc(C)c1C1C(=O)CC(CC(=O)NCc2cccc(C(F)(F)F)c2)C1=O (centres unmarked) [Compound A120] | 100% | 100% | 100% | 100% | – | – | – | – | – | – | – | – | pest or weed control at 250 g/ha [1, 9]: 80%; pest or weed control at 250 g/ha [2, 10]: 90%; pest or weed control at 250 g/ha [3, 11]: 100%; pest or weed control at 250 g/ha [4, 12]: 80%
8 | Cc1cc(-c2ncc(F)cn2)cc(C)c1C1C(=O)CC(CC(=O)N(C)C)C1=O (centres unmarked) [Compound B279] | – | – | – | – | 100% | 100% | 100% | 100% | 100% | 100% | 100% | 100% | –
9 | C#CC(C)NC(=O)CC1CC(=O)C(c2c(C)cc(C)cc2C)C1=O (centres unmarked) [Compound B56] | – | – | – | – | – | – | – | – | – | – | – | – | pest or weed control at 250 g/ha [1, 13]: 90%; pest or weed control at 250 g/ha [1, 14]: 80%; pest or weed control at 250 g/ha [2, 15]: 90%; pest or weed control at 250 g/ha [2, 16]: 70%; pest or weed control at 250 g/ha [3, 17]: 90%; pest or weed control at 250 g/ha [3, 18]: 90%; pest or weed control at 250 g/ha [4, 19]: 90%; pest or weed control at 250 g/ha [4, 20]: 80%
10 | C=CCNC(=O)CC1CC(=O)C(c2c(C)cc(OCC(F)(F)F)cc2CC)C1=O (centres unmarked) [Compound B218] | – | – | – | – | 100% | 100% | 100% | 90% | 100% | 100% | 100% | 100% | –
11 | COc1ccc(CNC(=O)CC2CC(=O)C(c3c(C)cc(-c4ccc(C#N)cn4)cc3C)C2=O)cc1 (centres unmarked) [Compound B324] | – | – | – | – | 70% | 30% | 90% | 0% | 100% | 30% | 80% | 60% | –
12 | Cc1cc(C)c(C2C(=O)CC(CC(=O)NCc3ccc(C(F)(F)F)nc3)C2=O)c(C)c1 (centres unmarked) [Compound A98] | 90% | 90% | 60% | 80% | – | – | – | – | – | – | – | – | pest or weed control at 250 g/ha [1, 9]: 100%; pest or weed control at 250 g/ha [2, 10]: 20%; pest or weed control at 250 g/ha [3, 11]: 80%; pest or weed control at 250 g/ha [4, 12]: 80%
